Each block holds one compound with its values, some of them ahead of it.
Legend:
SNAP-eDHFR L54I = SNAP-eDHFR L54I (Escherichia coli, UniProt P0ABQ4, L54I); test: biochemical; format: binding
SNAP-eDHFR L54G = SNAP-eDHFR L54G (Escherichia coli, UniProt P0ABQ4, L54G); test: biochemical; format: binding
SNAP-eDHFR WT [1] = biological target: T1, SNAP-eDHFR WT (Escherichia coli, UniProt P0ABQ4); test: biochemical
SNAP-eDHFR WT [2] = biological target: T1, SNAP-eDHFR WT; test: biochemical; format: binding
PDE6D = biological target: T2, PDE6D (Homo sapiens, UniProt O43924); test: Cell imaging assay in fixed U2OS cells; format: binding; conditions: 100 nM atorvastatin-SNAP-EGFP
T2 construct: expressed in transfected cells; host or cells: U2OS
Source text: (§1) Finally, we developed a binding assay applicable to fixed cells. Such an assay is desirable if the protein to be analyzed is insoluble or unstable in extracts. In this assay (Figure 1B, 7A), the epitope-tagged receptor protein is over-expressed in mammalian cells by transient transfection. The cells are fixed with paraformaldehyde and permeabilized with nonionic detergent. The expression of the receptor protein is then confirmed by visualization with the anti-epitope tag antibody conjugated with a fluorophore using immunofluorescence microscopy. In parallel, the ligand-protein interaction is examined with the aid of BG-derivatized ligand conjugated to EGFP via SNAP-tag. […] We evaluated the generality of this method using other previously validated drug-protein interactions (PDE6D-atorvastatin, PTK2B-purvalanol B, and FYN-dasatinib). Binding of all three pairs was detected with this method (Figure S3).
(§2) Supplementary file pone.0037598.s003.tif: Figure S3 Cell imaging assay using validated drug-receptor pairs. (A) U2OS cells were transfected with a plasmid which express V5 tagged PDE6D. One day after transfection, cells were fixed with 4% paraformaldehyde, and permeabilized with 0.1% Tritin X-100. After washing, the cells were incubated with anti-V5-antibody conjugated with FITC or 100 nM atorvastatin-SNAP-EGFP. Fluorescence images (GFP filter) were taken within 30 min after washing of the cells. (B) (C) Cell imaging assay using pairs of purvalanol B-PTK2B and dasatinib-FYN, respectively. (TIF) Click here for additional data file.

FYN = biological target: T3, FYN (Homo sapiens, UniProt P06241); test: Cell imaging assay in fixed U2OS cells; format: binding; conditions: ligand as SNAP-EGFP conjugate
T3 construct: expressed in transfected cells; host or cells: U2OS
Source text: as §1, §2

SNAP-ORP7 = biological target: T4, SNAP-ORP7 (Homo sapiens, UniProt Q9BZF2); format: binding; conditions: HEK293 cell extract, free erlotinib 10 µM
T4 construct: strep-tag (N); made in house; host or cells: HEK293 (suspension HEK-293E), transient transfection, Strep-tactin purified
T4 sequence (Q9BZF2 1-842): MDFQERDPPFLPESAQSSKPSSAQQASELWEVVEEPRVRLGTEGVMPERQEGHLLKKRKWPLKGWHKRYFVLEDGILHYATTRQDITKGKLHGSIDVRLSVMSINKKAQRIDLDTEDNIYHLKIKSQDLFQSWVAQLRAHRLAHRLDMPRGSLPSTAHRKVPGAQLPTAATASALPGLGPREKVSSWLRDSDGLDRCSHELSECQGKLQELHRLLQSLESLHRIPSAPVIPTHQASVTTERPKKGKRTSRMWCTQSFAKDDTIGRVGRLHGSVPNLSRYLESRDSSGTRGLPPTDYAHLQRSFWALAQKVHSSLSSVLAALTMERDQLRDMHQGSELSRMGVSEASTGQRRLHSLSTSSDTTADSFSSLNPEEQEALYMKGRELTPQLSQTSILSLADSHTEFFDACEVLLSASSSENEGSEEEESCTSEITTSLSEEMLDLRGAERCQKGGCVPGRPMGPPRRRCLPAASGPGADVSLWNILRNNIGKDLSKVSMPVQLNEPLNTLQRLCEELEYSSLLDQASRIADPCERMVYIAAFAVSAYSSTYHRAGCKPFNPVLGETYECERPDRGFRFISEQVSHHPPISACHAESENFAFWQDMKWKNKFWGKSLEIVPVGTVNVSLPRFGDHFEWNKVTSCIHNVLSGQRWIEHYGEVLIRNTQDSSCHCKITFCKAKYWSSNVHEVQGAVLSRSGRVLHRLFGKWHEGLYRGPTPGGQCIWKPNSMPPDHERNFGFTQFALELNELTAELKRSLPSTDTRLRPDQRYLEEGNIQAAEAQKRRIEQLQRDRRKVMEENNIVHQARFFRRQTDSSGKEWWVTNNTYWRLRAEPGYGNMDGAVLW

PTK2B = biological target: T5, PTK2B (Homo sapiens, UniProt Q14289); test: Cell imaging assay in fixed U2OS cells; format: binding; conditions: ligand as SNAP-EGFP conjugate
T5 construct: expressed in transfected cells; host or cells: U2OS
Source text: as §1, §2

[3] = system: eDHFR (every eDHFR mutant); test: SNAP-based TR-FRET competition assay using MTX and MTX-BG as competitors; format: binding, Escherichia coli; conditions: MTX-BG vs MTX, 100 µM NADPH

Compound: COc1cc(NCc2ccc3nc(N)nc(N)c3c2C)cc(OC)c1OC [Trimetrexate, trimetrexate]
Kd (SNAP-eDHFR L54I): 0.0001 ± 1e-05 µM
Kd (SNAP-eDHFR L54G): 0.00064 ± 4e-05 µM
IC50 (SNAP-eDHFR WT [1]): 0.00027 ± 3e-05 µM
Kd (SNAP-eDHFR WT [2]): 0.00015 ± 1e-05 µM

Compound: CC1(C)N=C(N)N=C(N)N1OCCCOc1cc(Cl)c(Cl)cc1Cl [WR99210]
Kd (SNAP-eDHFR L54I): 2.6 ± 0.21 µM
Kd (SNAP-eDHFR L54G): 15 ± 0.79 µM
IC50 (SNAP-eDHFR WT [1]): 54 ± 16 µM
Kd (SNAP-eDHFR WT [2]): 12 ± 0.95 µM

Binding detected by cell imaging, PDE6D (PDE6D): detected
Compound: CC(C)c1c(C(=O)Nc2ccccc2)c(-c2ccccc2)c(-c2ccc(F)cc2)n1CC[C@@H](O)C[C@@H](O)CC(=O)O [atorvastatin]

Binding detected by cell imaging, FYN (FYN): detected
Compound: Cc1nc(Nc2ncc(C(=O)Nc3c(C)cccc3Cl)s2)cc(N2CCN(CCO)CC2)n1 [dasatinib]

Effect of free ligand on hetero-crosslinking product band (SNAP-ORP7): no longer detected
Compound: C#Cc1cccc(Nc2ncnc3cc(OCCOC)c(OCCOC)cc23)c1 [erlotinib]

Binding detected by cell imaging, PTK2B (PTK2B): detected
Compound: CC(C)[C@H](CO)Nc1nc(Nc2ccc(C(=O)O)c(Cl)c2)c2ncn(C(C)C)c2n1 [purvalanol B]

Compound: methotrexate-BG [MTX-BG]
Change of Kd values by derivatization of MTX with BG [3]: about 10 fold

— PMC3365113, “Exploiting Ligand-Protein Conjugates to Monitor Ligand-Receptor Interactions” (PLoS ONE, 2012)
